Experimental data taken from patent US20090023186A1, “USE OF VALPROIC ACID FOR ENHANCING PRODUCTION OF RECOMBINANT PROTEINS IN MAMMALIAN CELLS” (EXCELLGENE SA, priority 2007, published 2009).

System: HEK293E cells
Assay: Combination with IDMTs, IgG batch yield by ELISA (Example 6)
Type: cell-based, Human
Conditions: VPA 4 mmol/l; no addition = 100%; day 5 after transfection
Method: 10 million suspension-adapted HEK293E cells were resuspended in 0.5 ml of Ex-Cell 293 HEK 293 serum-free medium with 4 mmol/l L-glutamine (Cat. No. 14571C-[…]; Lot No. 6A0093; SAFC Biosciences, Lenexa, Kans., USA, “Ex-Cell” medium; note: “Ex-Cell” medium-as used herein-refers to a medium comprising 4 mmol/l L-glutamine) in a 50-ml filter tube each (TPP AG, Trasadingen, Switzerland; Cat. No. 87050, Lot 20050174). In a separate set, 10 million suspension-adapted CHO DG44 cells were resuspended in 0.5 ml of ProCHO5 serum-free medium with 4 mmol/[…] hypoxanthine and 0.194 g/l thymidine (BioWhittaker (Lonza), Belgium; Cat. No. BE12-[…]; Lot No. 7MB0040; “ProCHO5” medium; note: “ProCHO5” medium-as used herein-refers to a medium comprising 4 mmol/[…] hypoxanthine and 0.194 g/l thymidine) in a 50-ml filter tube each (TPP AG, Trasadingen, Switzerland; Cat. No. 87050, Lot 20050174). Then 12.5 μg plasmid DNA at a concentration of 1 μg/μl was added in each tube with the following composition 50% (6.25 μg) p-LC (SEQ ID NO: 1) 50% (6.25 μg) p-HC (SEQ ID NO: 3). Plasmid p-LC comprises the genetic information for the production of the light chain of an IgG antibody, plasmid p-HC comprises the genetic information for the production of the heavy chain of an IgG antibody. The particular vector constructs used in the present invention can also be obtained from the inventors. The inventors can be contacted via e-mail at […]. […] In short, Goat anti-human kappa light chain IgG (Biosource) was used for coating the ELISA-plates, and with AP-conjugated goat anti-human gamma chain IgG (Biosource) the synthesized IgG1 was detected. […] Absorption was measured at 405 nm against 490 nm using a microplate reader (SPECTRAmaxTM340; Molecular Devices, Palo Alto, Calif., USA).

Q: For `CCCC(CCC)C(=O)O` [VPA, valproic acid], which “Fold increase in batch yield over control” value is on record?
A: 520% ± 30%
